Consider 18 molecules from patent publication US20240101548A1, “HYDROXAMATE COMPOUND, PREPARATION METHOD THEREFOR AND APPLICATION THEREOF” (SHENZHEN CHIPSCREEN BIOSCIENCES CO., LTD., priority 2020, published 2024).

What all share (assay type): cell-based, human
Assay [1] deals with IL-10-induced JAK1/TYK2 signal pathway. Description: IL-10-induced JAK1/TYK2 signal pathway STAT3-Luc reporter gene assay in U2OS cells. The following applies: Homo sapiens, U2OS cells, STAT3-Luc reporter, IL-10 10 ng/mL, read-out: Half inhibition dose (IC50) on IL-10-induced JAK1/TYK2 signal pathway. The source says: Cytokine IL-10 is one of the main members of IL-10 family. The receptor that cytokine IL-10 binds to consists of two kinds of subunits, i.e., IL-10R1 and IL-10R2, which respectively couple with JAK1 and TYK2. After the coupling of IL-10 with its receptor, interaction of phosphorylation occurs between JAK1 and TYK2 to form STAT3 docking site for phosphorylation of STAT3. The phosphorylated STAT3 enters the nucleus and drives the transcription and expression of downstream genes.
The reporter gene plasmid STAT3-Luc Reporter used in the present invention has luciferase expression sequence as the reporter gene, upstream of which is a promoter sequence containing multiple STAT3 binding sites. When phosphorylated STAT3 induced by IL-10 signal pathway binds to the promoter of STAT3-Luc Reporter plasmid, luciferase is transcribed and expressed. The excitation fluorescence catalyzed by Luciferase can be detected after the addition of […] substrate, whose intensity can quantitively reflect the activation level of the signal pathway.
Human osteosarcoma cell line U20S was commercially available from American Type Culture Collection (ATCC), and relevant culture conditions referred to those from ATCC. It was known that such cell line could express IL-10R2, JAK1, TYK2 and STAT3, therefore, by exogenous expression of IL-10R1 gene, a complete IL-10 signal pathway could be established. The human IL-10R1 subunit overexpression plasmid pCMV3-IL10RA-EGFP was constructed by Shanghai Genechem Co., Ltd., and capable of simultaneously expressing enhanced green fluorescent protein. In the subsequent detection and calculation, the signal of green fluorescent protein in the tested sample was used as a reference for transfection efficiency calibration of the luciferase reporter gene signal. Reporter plasmid STAT3-Luc Reporter was commercially available from Ji Man Biotech (Shanghai) Co., Ltd.
X-tremeGENE 9 DNA Transfection Reagent (Roche) was used for the transfection of plasmid DNA into cells, Cell Culture Lysis 5× reagent (Promega) and Luciferase Assay System (Promega) were used in cell lysate preparation and enzyme-substrate reaction for luciferase reporter gene detection. Green fluorescent protein signal and luciferase reporter gene signal were both detected by Tecan Spark™ 10M multimode microplate reader. The inhibition rate of the tested compound on the IL-10 signal pathway reporter gene signal and the half inhibition dose IC50 were both calculated using Microsoft Excel and GraphPad Prism 7.00 software.
U2OS cell line was inoculated in 96-well plate with flat bottom at 5000 cells per well, and cultured overnight at 37° C. and 5% CO2 followed by plasmid transfection. Following the instructions and using X-tremeGENE 9 DNA Transfection Reagent, pCMV3-IL10RA-EGFP and STAT3-Luc Reporter plasmids were co-transfected into the inoculated U2OS cells. After 24 hours of transfection, the tested compound was added respectively for a final concentration of 0, 0.1, 0.3, 1, 3, 10, 30, 100, or 300 nM. After 6 hours of culture at 37° C. and 5% CO2, IL-10 cytokine (Human IL-10 PEPROTECH 200-10-10UG) was added to each well for a final concentration of 10 ng/mL, the well in which neither compound nor cytokine was added was designated as 0% control well. The culture was continued for 24 hours before testing.
Cell lysate was prepared by using Cell Culture Lysis reagent and transferred to 96-well plate with half-well clear bottom. The green fluorescent protein signal value was detected at Ex485/Em520 using Tecan microplate reader, and recorded. After adding to each well the luciferase substrate from Luciferase Assay System, the signal value of luciferase-substrate reaction was immediately detected at 560 nm using Tecan microplate reader, and recorded.
Using Microsoft Excel software, the signal value of luciferase-substrate reaction of each well was calculated and calibrated based on the signal value of green fluorescent protein of each well. […]
A general note: A reporter such as luciferase makes a cellular process visible.

The test system of assay [2] is IL-2-induced JAK1/JAK3 signal pathway. Description: IL-2-induced proliferation of KHYG-1 cells (JAK1/JAK3 signal). To be noted: Homo sapiens, read-out: Inhibition activity IC50 on IL-2-induced JAK1/JAK3 signal pathway. In short, it runs like this: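 KHYG-1 NK lymphoma cells were cultured with IL-2 and test compound at various doses for 72 h at 37 °C and 5% CO2, and proliferation was read with alamarBlue fluorescence. Inhibition was normalized to wells without compound or cytokine (0%) and IL-2 wells without compound (100%), and C50 was derived from the dose-inhibition data.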

The test system of assay [3] is EPO-induced JAK2 signal pathway. The experiment in a line: EPO-induced proliferation of UT-7 cells (JAK2 signal). To be noted: Homo sapiens, UT7; UT-7 cell proliferation, EPO 10 ng/mL, 72 hours; read-out: Inhibition activity IC50 on EPO-induced JAK2 signal pathway. The method in brief: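 UT-7 cells (15000/well) stimulated with 10 ng/mL human recombinant EPO plus compound at final 0, 100, 1000 or 10000 nM, 72 h at 37° C., 5% CO2. Proliferation by alamarBlue fluorescence (Ex530/Em590); inhibition normalised to no-cytokine/no-compound (0) and EPO-only (100) wells, […] derived from dose-inhibition.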

[4] abbreviates: KHYG-1 cell proliferation, IL-2 10 ng/mL, 72 hours.

pIC50: −log10 of the molar value. Read-outs that look alike come from different tables or passages of the source.

Take `CCONC(=O)c1cnc(NC(=O)C2CC2)cc1Nc1cc(F)c(C2CC2)cc1N(C)S(C)(=O)=O` [Example 97, 6-(cyclopropylcarboxamido)-4-((4-cyclopropyl-5-fluoro-2-(N-methylmethanesulfonamido)phenyl)amino)-N-ethoxy nicotinamide]: the pIC50 in assay [1] (U2OS) is 8.88; in assay [2] (setting [4]) it was < 5.00; in assay [3], < 5.00.
Take `CNC(=O)c1cnc(Nc2ccc(F)cn2)cc1Nc1ccccc1N(C)S(C)(=O)=O` [Example 100, 6-((5-fluoropyridin-2-yl)amino)-N-methyl-4-((2-(N-methylmethanesulfonamido)phenyl)amino)nicotinamide]: the pIC50 was 7.77 in assay [1] (U2OS), < 5.00 in assay [2] (setting [4]) and < 5.00 in assay [3].
`CONC(=O)c1cnc(Nc2ccc(OC)cn2)cc1Nc1ccccc1N(C)S(C)(=O)=O` [Example 101]: the pIC50 in assay [1] (U2OS) was 8.83; in assay [2] (setting [4]), < 5.00; in assay [3] it was < 5.00.
Take `CONC(=O)c1cnc(Nc2cccc(C)n2)cc1Nc1ccccc1N(C)S(C)(=O)=O` [Example 102, N-methoxy-4-((2-(N-methylmethanesulfonamido)phenyl)amino)-6-((6-methylpyridin-2-yl)amino)nicotinamide]: the pIC50 is 9.21 in assay [1] (U2OS), < 5.00 in assay [2] (setting [4]) and < 5.00 in assay [3].
For the molecule `CONC(=O)c1cnc(Nc2cccc(F)n2)cc1Nc1ccc(C)cc1N(C)S(C)(=O)=O` [Example 106, 6-((6-fluoropyridin-2-yl)amino)-N-methoxy-4-((4-methyl-2-(N-methylmethanesulfonamido)phenyl)amino)nicotinamide], the pIC50 in assay [1] (U2OS) was 8.74; in assay [2] (setting [4]) it was < 5.00; in assay [3] it was < 5.00.
Regarding `CONC(=O)c1cnc(Nc2ccc(OC)cn2)cc1Nc1ccc(C)cc1N(C)S(C)(=O)=O` [Example 108], the figures for the pIC50 in assay [1] (U2OS), in assay [2] (setting [4]) and in assay [3] were 8.73, < 5.00 and < 5.00, respectively.
In the case of `CONC(=O)c1cnc(Nc2cccc(F)n2)cc1Nc1ccc(C)nc1N(C)S(C)(=O)=O` [Example 109, 6-((6-fluoropyridin-2-yl)amino)-N-methoxy-4-((6-methyl-2-(N-methylmethanesulfonamido)pyridin-3-yl)amino)nicotinamide], the pIC50 was 9.14 in assay [1] (U2OS), < 5.00 in assay [2] (setting [4]) and < 5.00 in assay [3].
For the molecule `CONC(=O)c1cnc(Nc2cc(C)c(F)cn2)cc1Nc1ccc(C2CC2)cc1N(C)S(C)(=O)=O` [Example 110], the results for the pIC50 in assay [1] (U2OS), in assay [2] (setting [4]) and in assay [3] were 8.82, < 5.00 and < 5.00, respectively.
Regarding `CONC(=O)c1cnc(Nc2ccc(C#N)cn2)cc1Nc1ccc(C2CC2)cc1N(C)S(C)(=O)=O` [Example 111, 4-((4-cyclopropyl-2-(N-methylmethanesulfonamido)phenyl)amino)-6-((5-cyanopyridin-2-yl)amino)-N-methoxy nicotinamide], the pIC50 was 8.96 in assay [1] (U2OS), < 5.00 in assay [2] (setting [4]) and < 5.00 in assay [3].
Take `CONC(=O)c1cnc(Nc2cc(C)nc(C)n2)cc1Nc1ccc(C2CC2)cc1N(C)S(C)(=O)=O` [Example 112]: the pIC50 in assay [1] (U2OS) is 9.15; in assay [2] (setting [4]), < 5.00; in assay [3], < 5.00.
Consider `CCONC(=O)c1cnc(Nc2ccc(OC)cc2)cc1Nc1ccc(Cl)cc1N(C)S(C)(=O)=O` [Example 113, 4-((4-chloro-2-(N-methylmethanesulfonamido)phenyl)amino)-N-ethoxy-6-((4-methoxyphenyl)amino)nicotinamide], for which the pIC50 in assay [1] (U2OS) is 9.38; in assay [2] (setting [4]), < 5.00; in assay [3], < 5.00.
`CCONC(=O)c1cnc(Nc2ccc(C#N)cn2)cc1Nc1ccc(Cl)cc1N(C)S(C)(=O)=O` [Example 114, 4-((4-chloro-2-(N-methylmethanesulfonamido)phenyl)amino)-N-ethoxy-6-((5-cyanopyridin-2-yl)amino)nicotinamide]: the figures for the pIC50 in assay [1] (U2OS), in assay [2] (setting [4]) and in assay [3] were 9.49, < 5.00 and < 5.00, respectively.
Regarding `CCONC(=O)c1cnc(Nc2cccc(F)n2)cc1Nc1ccccc1NS(=O)(=O)C1CC1` [Example 116, 4-((2-(cyclopropylsulfonamido)phenyl)amino)-N-ethoxy-6-((6-fluoropyridin-2-yl)amino)nicotinamide], the pIC50 in assay [1] was 9.33; in assay [2] (KHYG-1, 72 h) it was < 5.00; in assay [3], < 5.00.
Take `Cc1cc(Nc2cc(Nc3ccc(C4CC4)cc3N(C)S(C)(=O)=O)c(C(=O)NOCC(F)(F)F)cn2)nc(C)n1` [Example 118]: the pIC50 in assay [1] (U2OS) was 8.89; in assay [2] (setting [4]), < 5.00; in assay [3], < 5.00.
As to `CN(c1cc(C2CC2)ccc1Nc1cc(Nc2cccc(F)n2)ncc1C(=O)NOCC(F)(F)F)S(C)(=O)=O` [Example 119, 4-((4-cyclopropyl-2-(N-methylmethanesulfonamido)phenyl)amino)-6-((6-fluoropyridin-2-yl)amino)-N-(2,2,2-trifluoroethoxy)nicotinamide], the pIC50 in assay [1] (U2OS) was 8.81; in assay [2] (setting [4]) it was < 5.00; in assay [3], < 5.00.
On to `CCONC(=O)c1cnc(Nc2cc(C)c(F)cn2)cc1Nc1ccc(C2CC2)cc1N(C)S(C)(=O)=O` [Example 125, 4-((4-cyclopropyl-2-(N-methylmethanesulfonamido)phenyl)amino)-N-ethoxy-6-((5-fluoro-4-methylpyridin-2-yl)amino)nicotinamide], for which the figures for the pIC50 in assay [1] (U2OS), in assay [2] (setting [4]) and in assay [3] were 9.02, < 5.00 and < 5.00, respectively.
Turning to `CCONC(=O)c1cnc(Nc2ccc(C#N)cn2)cc1Nc1ccc(C2CC2)cc1N(C)S(C)(=O)=O` [Example 126, 6-((5-cyanopyridin-2-yl)amino)-4-((4-cyclopropyl-2-(N-methylmethanesulfonamido)phenyl)amino)-N-ethoxy nicotinamide], the values for the pIC50 in assay [1] (U2OS), in assay [2] (setting [4]) and in assay [3] were 9.15, < 5.00 and < 5.00, respectively.
Take `C#Cc1ccc(Nc2cc(Nc3cc(C)nc(C)n3)ncc2C(=O)NOCC)c(N(C)S(C)(=O)=O)c1` [Example 127, 6-((2,6-dimethylpyrimidin-4-yl)amino)-N-ethoxy-4-((4-ethynyl-2-(N-methylmethanesulfonamido)phenyl)amino)nicotinamide]: the pIC50 is 9.11 in assay [1] (U2OS), < 5.00 in assay [2] (setting [4]) and < 5.00 in assay [3].
